Assay results as given in patent US10689318B2, “Bisphenol having fluorene skeleton, method for producing same, polyarylate resin, (meth)acrylate compound and epoxy resin which are derived from the bisphenol” (TAOKA CHEMICAL CO., LTD., priority 2016, dated 2020).

How the values were obtained:
Type in all cases: physicochemical
[1] = 5% weight loss temperature (thermogravimetric instrument); settings: bisphenol; 10° C./min from room temperature to 500° C., nitrogen gas stream
Experimental: [6] 5% Weight Loss Temperature
Using a thermogravimetric instrument (TGA-50 from Shimadzu Corporation), measurement was performed with the temperature elevated at a rate of 10° C./min from room temperature to 500° C. under a nitrogen gas stream.

[2] = Refractive index and Abbe number (Abbe refractometer, NMP solutions extrapolated to 100% by weight); settings: 20° C.; for Refractive index: 589 nm; for Abbe number: calculated from extrapolated refractive indices at 486, 589, 656 nm
Experimental: [5] Refractive Index and Abbe Number
The refractive index of each of the bisphenol, the polyarylate resin, the (meth)acrylate compound and the epoxy resin is a value determined using the following method and conditions. In addition, the Abbe number of each of the (meth)acrylate compound and the epoxy resin was calculated on the basis of the refractive index measured using the following method and conditions. • Apparatus: Abbe refractometer (“multiwavelength Abbe refractometer DR-2M” manufactured by ATAGO CO., LTD.) • Measurement wavelength: 589 nm (refractive index), 486, 589, 656 nm (Abbe number) • Measurement temperature: 20° C. • Refractive index of bisphenol: The bisphenol was dissolved in N-methyl-2-pyrrolidone (hereinafter, sometimes referred to as NMP) to prepare 5 wt %, 10 wt % and 15 wt % solutions, and the refractive index was measured for each of the solutions using the above-mentioned apparatus and conditions. Next, an approximate curve was derived from the obtained three measured values, and a value obtained by extrapolating the curve at 100% by weight was defined as a refractive index of each bisphenol. • Refractive index of polyarylate resin: A polyarylate resin powder was dissolved in NMP to prepare 1 wt %, 3 wt % and 5 wt % solutions, and the refractive index was measured for each of the solutions using the above-mentioned apparatus and conditions. Next, an approximate curve was derived from the obtained three measured values, and a value obtained by extrapolating the curve at 100% by weight was defined as a refractive index of each polyarylate resin. • Refractive index and Abbe number of (meth)acrylate compound: Each (meth)acrylate compound was dissolved in NMP to prepare a 5 wt %, 10 wt % and 15 wt % solutions (for Comparative Examples 4 and 5, 1 wt %, 3 wt % and 5 wt % solutions were prepared because the (meth)acrylate compound was hardly soluble in an organic solvent), and the refractive index at each wavelength was measured for each of the solutions using the above-mentioned apparatus and conditions. Next, an approximate curve was derived from the obtained three measured values, a value obtained by extrapolating the curve at 100% by weight was defined as a refractive index of each (meth)acrylate compound at each wavelength, and the Abbe number was calculated on the basis of the refractive index at each wavelength, which was determined as described above. • Refractive index and Abbe number of epoxy resin: Each epoxy resin was dissolved in NMP to prepare 5 wt %, 10 wt % and 15 wt % solutions, and the refractive index at each wavelength was measured for each of the solutions using the above-mentioned apparatus and conditions. Next, an approximate curve was derived from the obtained three measured values, a value obtained by extrapolating the curve at 100% by weight was defined as a refractive index of each epoxy resin at each wavelength, and the Abbe number was calculated on the basis of the refractive index at each wavelength, which was determined as described above.

[3] = Solubility test of (meth)acrylate compound; design: key: ◯: The sample is dissolved at room temperature.; Δ: The sample is dissolved when heated, and crystals are not precipitated even when the sample is cooled.; x: The sample is dissolved when heated, but crystals are precipitated when the sample is cooled, or the sample is not dissolved even when heated; settings: for Solubility (30 mass % concentration) Monofunctional acrylate OPPEA: 30 parts by weight acrylate + 70 parts 2-phenylphenoxyethyl acrylate; for Solubility (30 mass % concentration) Solvent EA: 30 parts by weight acrylate + 70 parts ethyl acetate; for Solubility (30 mass % concentration) Monofunctional acrylate POB-A: 30 parts by weight acrylate + 70 parts m-phenoxybenzyl acrylate; for Solubility (30 mass % concentration) Solvent MEK: 30 parts by weight acrylate + 70 parts methyl ethyl ketone; for Solubility (30 mass % concentration) Solvent PGME: 30 parts by weight acrylate + 70 parts propylene glycol monomethyl ether; for Solubility (30 mass % concentration) Solvent PGMEA: 30 parts by weight acrylate + 70 parts propylene glycol monomethyl ether acetate
Experimental: (9-2) Solubility Test of (Meth)Acrylate Compound
30 parts by weight of the (meth)acrylate compound and 70 parts by weight of each of the diluents (solvent or monofunctional acrylate) shown in Table 3 were mixed, and solubility was evaluated on the basis of the following evaluation criteria.
◯: The sample is dissolved at room temperature.
Δ: The sample is dissolved when heated, and crystals are not precipitated even when the sample is cooled.
x: The sample is dissolved when heated, but crystals are precipitated when the sample is cooled, or the sample is not dissolved even when heated.

[4] = Glass transition temperature (DSC); settings: (meth)acrylate compound; DSC 10° C./min
Experimental: [4] Melting Point (Melt Endothermic Maximum Temperature in Differential Scanning Calorimetry (DSC)) and Glass Transition Temperature
5 mg of a sample was precisely weighed, and taken in an aluminum pan, measurement was performed under the following operation conditions with aluminum oxide as a control using a differential scanning calorimeter (DSC 7020 manufactured by SII NanoTechnology Inc.), and the detected melt endothermic maximum temperature was defined as a melting point. For a sample (amorphous material, resin or the like) in which a melt endothermic peak was not detected, the intersection of tangent lines at an inflection point was defined as a glass transition temperature (Tg).
• Temperature elevation rate: 10° C./min (for bisphenol and (meth)acrylate compound) and 20° C./min (for polyarylate resin) • Measurement range: 30 to 250° C. (for bisphenol), 150 to 250° C. (for polyarylate resin) and −30 to 350° C. (for (meth)acrylate compound) • atmosphere: Open, nitrogen: 40 ml/min

[5] = bisphenol, 5, 10, 15 wt % NMP solutions extrapolated to 100% by weight
[6] = (meth)acrylate compound, 5, 10, 15 wt % NMP solutions (Comparative Examples 4 and 5: 1, 3, 5 wt %) extrapolated to 100% by weight

| 5% weight loss temperature [1] [°C] | Refractive index [2, 5] | Solubility (30 mass % concentration) Monofunctional acrylate OPPEA [3] | Solubility (30 mass % concentration) Solvent EA [3] | Solubility (30 mass % concentration) Monofunctional acrylate POB-A [3] | Solubility (30 mass % concentration) Solvent MEK [3] | Solubility (30 mass % concentration) Solvent PGME [3] | Solubility (30 mass % concentration) Solvent PGMEA [3] | Refractive index [2, 6] | Abbe number ([2]; (meth)acrylate compound) | Tg [4] [°C] | Structure (SMILES) |
| --- | --- | --- | --- | --- | --- | --- | --- | --- | --- | --- | --- |
|  |  | ∘ | ∘ | ∘ | ∘ | x | ∘ | 1.591 | 23.1 | 0.0 | C=CC(=O)OCCOc1ccc(C2(c3ccc(OCCOC(=O)C=C)c(C)c3)c3ccccc3-c3ccccc32)cc1C [Comparative Example 6] |
| 357 | 1.67 |  |  |  |  |  |  |  |  |  | Oc1c(Cc2ccccc2)cc(C2(c3cc(Cc4ccccc4)c(O)c(-c4ccccc4)c3)c3ccccc3-c3ccccc32)cc1-c1ccccc1 [Example 1] |
|  |  | ∘ | ∘ | ∘ | ∘ | ∘ | ∘ | 1.633 | 19.7 | 32.4 | C=CC(=O)Oc1c(Cc2ccccc2)cc(C2(c3cc(Cc4ccccc4)c(OC(=O)C=C)c(-c4ccccc4)c3)c3ccccc3-c3ccccc32)cc1-c1ccccc1 [Example 5] |
| 363 | 1.65 |  |  |  |  |  |  |  |  |  | OCCOc1ccc(C2(c3ccc(OCCO)c(-c4ccccc4)c3)c3ccccc3-c3ccccc32)cc1-c1ccccc1 [Reference Example 1] |
|  |  | x | ∘ | x | ∘ | x | x | 1.632 | 19.0 |  | C=CC(=O)Oc1ccc2ccccc2c1-c1c(OC(=O)C=C)ccc2ccccc12 [Reference Example 2] |

The next lines start with the compound.

| Structure (SMILES) | 5% weight loss temperature [1] [°C] | Refractive index [2, 5] | Solubility (30 mass % concentration) Monofunctional acrylate OPPEA [3] | Solubility (30 mass % concentration) Solvent EA [3] | Solubility (30 mass % concentration) Monofunctional acrylate POB-A [3] | Solubility (30 mass % concentration) Solvent MEK [3] | Solubility (30 mass % concentration) Solvent PGME [3] | Solubility (30 mass % concentration) Solvent PGMEA [3] | Refractive index [2, 6] | Abbe number ([2]; (meth)acrylate compound) | Tg [4] [°C] |
| --- | --- | --- | --- | --- | --- | --- | --- | --- | --- | --- | --- |
| Oc1ccc(C2(c3ccc(O)c(-c4ccccc4)c3)c3ccccc3-c3ccccc32)cc1-c1ccccc1 [Comparative Example 1] | 306 | 1.67 |  |  |  |  |  |  |  |  |  |
| C=CC(=O)Oc1ccc(C2(c3ccc(OC(=O)C=C)c(C)c3)c3ccccc3-c3ccccc32)cc1C [Comparative Example 4] |  |  | x | x | x | x | x | x | 1.606 | 25.5 |  |
| C=CC(=O)Oc1ccc(C2(c3ccc(OC(=O)C=C)c(-c4ccccc4)c3)c3ccccc3-c3ccccc32)cc1-c1ccccc1 [Comparative Example 5] |  |  | x | x | x | x | x | x | 1.644 | 21.4 |  |
